Here are results for 14 compounds from patent publication US9096543B2, “Nuclear transport modulators and uses thereof” (Karyopharm Therapeutics Inc., priority 2012, dated 2015).

pIC50: −log10 of the molar value.

Data set [1] can be described thus: Brain to plasma ratio (B:P) in mice. The following applies: for Kp at 2 h: mouse, brain and plasma, 10 mg/kg po, 2 hours post-dose. It counts as in vivo. The protocol:
Brain tissue following collection was rinsed with cold saline, dried on filter paper, weighed and snap-frozen by placing on dry ice. All samples were stored frozen at approximately −80° C. until analysis. […] Plasma samples were treated with the identical method (except homogenization step) and concentration of compound in either matrix was calculated based on the generated standard curves.

Data set [2] in a line: MTT Cell Proliferation Assay (CellTiter 96 AQueous One Solution, MTS). The following applies: human; 72 h treatment; cell line not given; read-out: Cytotoxicity [IC50]. It counts as cell-based. The source says: The CellTiter 96® AQueous One Solution cell proliferation assay (Promega) was used on MM1.S, Jurkat and HCT-116 cells to study the cytotoxic and cytostatic properties of the compounds. The assay is based on the cleavage of the tetrazolium salt, MTS, in the presence of an electron-coupling reagent PES (phenazine ethosulfate). The MTS tetrazolium compound is bioreduced by cells into a colored formazan product that is soluble in tissue culture medium. This conversion is presumably accomplished by NADPH or NADH produced by dehydrogenase enzymes in metabolically active cells. Assays are performed by adding a small amount of the CellTiter 96® AQueous One solution reagent directly to culture wells, incubating for 1-4 hours and then recording the absorbance at 490 nm with a 96-well plate reader. […] The cells were seeded at 5×10^3 to 1.5×10^4 cells (depending on cell type) in each well of 96-well plate in 100 μL of fresh culture medium and adherent cells were allowed to attach for overnight. The stock solutions of the compounds were diluted in cell culture medium to obtain eight concentrations of each drug, ranging from 1 nM to 30 μM and DMSO at less than 1% v/v was used as a negative control. After 72 h of treatment 20 μl of CellTiter 96® AQueous reagent was added into each well of the 96-well assay plates and the plate was incubate at 37° C. for 1-4 hours in a humidified, 5% CO2 atmosphere. Then the absorbance of each well was recorded at 490 nm by using a 96-well plate reader. In most cases the assay was performed in triplicates and the results were presented as half maximal inhibitory concentration (IC50) described below. Optical density versus compound concentration was plotted and analyzed using non linear regression equations (Excel Fit) and the IC50 for each compound was calculated.

Data set [3] can be described thus: Pharmacokinetics (plasma AUC) in mice. The following applies: mouse. It counts as in vivo. The protocol: Blood was collected from mice (N=3) to contribute to the total of 10 time points (pre-dose, 5 min, 15 min, 30 min, 1 hour, 2 hours, 4 hours, 8 hours, 12 hours and 24 hours post dose). Mice were bled on a rotating basis, each mouse contributing 3 time points to the blood collection. At the designated time points, animals were anaesthetized under isoflurane, and approximately 110 μL of blood per time point was collected via retro-orbital puncture into pre-cooled K2EDTA (anti-coagulant) tubes. Blood samples were put on wet ice and centrifuged (2000 g, 5 min at 4° C.) to obtain plasma within 30 minutes of sample collection. All samples were stored frozen at approximately −80° C. until analysis. Prior to analysis, samples were mixed with internal standard (dexamethasone) in acetonitrile, vortexed, centrifuged, and supernatant was injected for analysis. Concentration of compounds in plasma was determined using LC-MS-MS instrumentation (API 4000, Triple Quadruple with electrospray ionization; Acuity Ultra Performance Liquid Chromatography column C18, with MeOH and formic acid as organic solvents). PK parameters including but not limited to Tmax, Cmax, t1/2, AUClast, AUCinf were calculated using WinNonlin Professional 6.2 software package, non-compartmental pharmacokinetic model NCA200.

Another data set addresses T1, CRM1 (Homo sapiens, UniProt O14980).
T1 construct: endogenous in cells; host or cells: U2OS-RevGFP cells
The data set can be described thus: RevGFP assay: inhibition of CRM1 mediated nuclear export. It counts as cell-based. The following applies: U2OS-RevGFP cells, ~1 hr with compound; read-out: Rev Export [IC50]. Here is the method: The inhibition of CRM1 mediated nuclear export by compounds of the invention was determined. The inhibitory activity of compounds for the CRM1 protein was determined in the RevGFP assay.
Experimental protocol: Rev is a protein from human immunodeficiency virus type 1 (HIV-1) and contains a nuclear export signal (NES) in its C-terminal domain and a nuclear localization signal (NLS) in its N-terminal domain. Nuclear export of Rev protein is dependent on the classical NES/CRM1 pathway (Neville et al, 1997, Kau et al, 2003). Nuclear accumulation of Rev is observed in cells treated with specific inhibitors of CRM1, such as LMB (Kau et al, 2003). In this assay, U2OS-RevGFP cells are seeded onto clear-bottom, black, 384-well plates the day before the experiment. Compounds are serially diluted 1:2 starting from 40 μM in a separate 384-well plate in DMEM, and then transferred onto cells. Cells are incubated with compound for ˜1 hr before fixation with 3.7% formaldehyde and nuclei staining with Hoechst 33258. The amount of GFP in cell nuclei was measured and compound IC50s were determined (Kau et al, 2003).

T1 sequence (O14980 whole entry): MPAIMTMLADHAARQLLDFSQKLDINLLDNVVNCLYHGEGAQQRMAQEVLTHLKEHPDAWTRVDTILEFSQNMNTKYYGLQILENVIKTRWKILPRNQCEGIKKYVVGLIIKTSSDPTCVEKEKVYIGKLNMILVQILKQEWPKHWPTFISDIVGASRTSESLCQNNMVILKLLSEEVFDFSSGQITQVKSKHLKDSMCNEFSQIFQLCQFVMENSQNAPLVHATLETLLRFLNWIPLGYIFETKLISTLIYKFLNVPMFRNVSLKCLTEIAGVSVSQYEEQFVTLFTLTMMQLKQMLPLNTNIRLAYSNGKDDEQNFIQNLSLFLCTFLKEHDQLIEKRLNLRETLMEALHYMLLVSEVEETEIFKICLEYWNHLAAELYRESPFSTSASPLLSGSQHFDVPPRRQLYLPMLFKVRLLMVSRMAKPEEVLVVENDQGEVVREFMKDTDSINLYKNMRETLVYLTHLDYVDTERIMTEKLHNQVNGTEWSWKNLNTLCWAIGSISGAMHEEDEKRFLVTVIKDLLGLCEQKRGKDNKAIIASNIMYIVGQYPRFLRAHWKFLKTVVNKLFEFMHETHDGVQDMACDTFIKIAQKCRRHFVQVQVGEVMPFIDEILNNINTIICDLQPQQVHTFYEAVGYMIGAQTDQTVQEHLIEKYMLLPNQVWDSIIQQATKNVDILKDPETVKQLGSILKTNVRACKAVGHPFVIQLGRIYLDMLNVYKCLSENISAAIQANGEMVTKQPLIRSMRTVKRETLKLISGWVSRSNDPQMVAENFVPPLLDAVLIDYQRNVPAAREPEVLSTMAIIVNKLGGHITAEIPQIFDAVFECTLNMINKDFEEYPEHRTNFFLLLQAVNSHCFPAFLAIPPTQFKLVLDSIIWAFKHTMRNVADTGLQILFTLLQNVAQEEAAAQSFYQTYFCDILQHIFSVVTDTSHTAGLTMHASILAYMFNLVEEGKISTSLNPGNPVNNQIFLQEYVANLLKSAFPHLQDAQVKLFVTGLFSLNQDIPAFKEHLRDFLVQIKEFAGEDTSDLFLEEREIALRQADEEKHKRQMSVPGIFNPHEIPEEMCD

Regarding `O=C(/C=C\n1cnc(-c2cc(C(F)(F)F)cc(C(F)(F)F)c2)n1)NNC(=O)Cc1cnccn1` [Compound 11, (Z)-3-(3-(3,5-bis(trifluoromethyl)phenyl)-1H-1,2,4-triazol-1-yl)-N′-(2-(pyrazin-2-yl)acetyl)acrylohydrazide], in data set [1], the Kp at 2 h is 0.095. Also, in data set [2], the IC50 at 72 h is under 1000 nM. The compound also had an AUC(0-inf) in data set [3] (10 mg/kg po) of 8340 ng·h/mL.
In the case of `O=C(/C=C\n1cnc(-c2cc(C(F)(F)F)cc(C(F)(F)F)c2)n1)NNC(=O)C1CCCNC1` (stereo not drawn) [Compound 6, (Z)—N′-(3-(3-(3,5-bis(trifluoromethyl)phenyl)-1H-1,2,4-triazol-1-yl)acryloyl)piperidine-3-carbohydrazide], the IC50 at 72 h in data set [2] is under 1000 nM.
Same read-out and setting: then `CC(C)[C@H](N)C(=O)NNC(=O)/C=C\n1cnc(-c2cc(C(F)(F)F)cc(C(F)(F)F)c2)n1` [Compound 7, (S,Z)-2-amino-N′-(3-(3-(3,5-bis(trifluoromethyl)phenyl)-1H-1,2,4-triazol-1-yl)acryloyl)-3-methylbutanehydrazide 2,2,2-trifluoroacetate], with under 1000 nM.
As to `CN1CCC(C(=O)NNC(=O)/C=C\n2cnc(-c3cc(C(F)(F)F)cc(C(F)(F)F)c3)n2)CC1` [Compound 9, (Z)—N′-(3-(3-(3,5-bis(trifluoromethyl)phenyl)-1H-1,2,4-triazol-1-yl)acryloyl)-1-methylpiperidine-4-carbohydrazide], in data set [2], the IC50 at 72 h was under 1000 nM. This compound also yielded an AUC(0-inf) in data set [3] (5 mg/kg po) of 671 ng·h/mL.
With `Cc1[nH]ncc1C(=O)NNC(=O)/C=C\n1cnc(-c2cc(C(F)(F)F)cc(C(F)(F)F)c2)n1` [Compound 3, (Z)—N′-(3-(3-(3,5-bis(trifluoromethyl)phenyl)-1H-1,2,4-triazol-1-yl)acryloyl)-5-methyl-1H-pyrazole-4-carbohydrazide], the pIC50 on CRM1 was over 6.00. For the same compound, the partition ratio (Kp) at 2 h in data set [1] came to 0.03. Moreover, in data set [2], the IC50 at 72 h was under 1000 nM. This compound also registered an AUC(0-inf) in data set [3] (10 mg/kg po) of 15200 ng·h/mL.
For the compound `CN(NC(=O)/C=C\n1cnc(-c2cc(C(F)(F)F)cc(C(F)(F)F)c2)n1)C(=O)CN1CCOCC1` [Compound 5, (Z)-3-(3-(3,5-bis(trifluoromethyl)phenyl)-1H-1,2,4-triazol-1-yl)-N′-methyl-N′-(2-morpholinoacetyl)acrylohydrazide], the IC50 at 72 h in data set [2] was under 1000 nM.
Turning to `O=C(/C=C\n1cnc(-c2cc(C(F)(F)F)cc(C(F)(F)F)c2)n1)NNC(=O)C(=O)N1CCOCC1` [Compound 12, (Z)-3-(3-(3,5-bis(trifluoromethyl)phenyl)-1H-1,2,4-triazol-1-yl)-N′-(2-morpholino-2-oxoacetyl)acrylohydrazide], the pIC50 on CRM1 was over 6.00. In addition, the Kp at 2 h in data set [1] was 0.06. Also, in data set [2], the IC50 at 72 h is under 1000 nM. The same compound came in with an AUC(0-inf) in data set [3] (10 mg/kg po) of 19600 ng·h/mL.
For the compound `CC1(C)COCCN1CC(=O)NNC(=O)/C=C\n1cnc(-c2cc(C(F)(F)F)cc(C(F)(F)F)c2)n1` [Compound 15, (Z)-3-(3-(3,5-bis(trifluoromethyl)phenyl)-1H-1,2,4-triazol-1-yl)-N′-(2-(3,3-dimethylmorpholino)acetyl)acrylohydrazide], the Kp at 2 h in data set [1] is 0. Besides, the IC50 at 72 h in data set [2] is under 1000 nM. In data set [3] (10 mg/kg po), this compound displayed an area under the curve AUC(0-inf) of 588 ng·h/mL.
With `O=C(/C=C\n1cnc(-c2cc(C(F)(F)F)cc(C(F)(F)F)c2)n1)NNC(=S)NC1CC1` [Compound 4, (Z)-2-(3-(3-(3,5-bis(trifluoromethyl)phenyl)-1H-1,2,4-triazol-1-yl)acryloyl)-N-cyclopropylhydrazinecarbothioamide], the Kp at 2 h in data set [1] stood at 0.028. The IC50 at 72 h in data set [2] was under 1000 nM. Besides, the AUC(0-inf) in data set [3] (10 mg/kg po) stood at 20900 ng·h/mL.
On the same counts, the results for `O=C(/C=C\n1cnc(-c2cc(C(F)(F)F)cc(C(F)(F)F)c2)n1)NNC(=O)CN1CCOCC1=O` [Compound 14, (Z)-3-(3-(3,5-bis(trifluoromethyl)phenyl)-1H-1,2,4-triazol-1-yl)-N′-(2-(3-oxomorpholino)acetyl)acrylohydrazide] are 0, under 1000 nM and 1420 ng·h/mL.
As for `COc1cc(-c2ncn(/C=C\C(=O)OC(C)C)n2)cc(C(F)(F)F)c1` [Compound X-1, reference compound], on CRM1, the pIC50 was over 6.00. Further, in data set [1] (dosed po), the “levels in the brain” value was “below the quantitation limit”. Further, the 50% inhibitory concentration (IC50) at 72 h in data set [2] is under 1000 nM. The AUC(0-inf) in data set [3] (5 mg/kg iv) turned out to be 209 ng·h/mL.
`O=C(/C=C\n1cnc(-c2cc(C(F)(F)F)cc(C(F)(F)F)c2)n1)NNC(=O)c1cnccn1` [Compound 8, (Z)—N′-(3-(3-(3,5-bis(trifluoromethyl)phenyl)-1H-1,2,4-triazol-1-yl)acryloyl)pyrazine-2-carbohydrazide]: in data set [1], the Kp at 2 h amounted to 0.41. The IC50 at 72 h in data set [2] is under 1000 nM. The AUC(0-inf) in data set [3] (10 mg/kg po) was found to be 9150 ng·h/mL.
In the case of `CC(C)[C@@H](N)C(=O)NNC(=O)/C=C\n1cnc(-c2cc(C(F)(F)F)cc(C(F)(F)F)c2)n1` [Compound 10, (R,Z)-2-amino-N′-(3-(3-(3,5-bis(trifluoromethyl)phenyl)-1H-1,2,4-triazol-1-yl)acryloyl)-3-methylbutanehydrazide 2,2,2-trifluoroacetate], the IC50 at 72 h in data set [2] was under 1000 nM.
`CC1COCC(C)N1CC(=O)NNC(=O)/C=C\n1cnc(-c2cc(C(F)(F)F)cc(C(F)(F)F)c2)n1` (stereo not drawn) [Compound 13, (Z)-3-(3-(3,5-bis(trifluoromethyl)phenyl)-1H-1,2,4-triazol-1-yl)-N′-(2-(3,5-dimethylmorpholino)acetyl)acrylohydrazide]: in data set [1], the Kp at 2 h came to 1.5. Besides, in data set [2], the IC50 at 72 h was under 1000 nM. Further, the AUC(0-inf) in data set [3] (10 mg/kg po) amounted to 1100 ng·h/mL.

The term Kp denotes the ratio of the level in a tissue or fluid to that in plasma or blood. For orientation: IC50 means the concentration that inhibits the measured activity by half. For orientation: AUC(0-inf) means the area under the concentration-time curve extrapolated to infinity. For orientation: pIC50 means −log10 of the IC50, conventionally taken in molar units.
